# Experimental data from patent publication US7868006B2, “Heterocyclic substituted piperazines with CXCR3 antagonist activity” (Schering Corporation, priority 2005, dated 2011).
# Biological target: T1, human CXCR3 (N-delta 4) (Homo sapiens, UniProt P49682)
# T1 construct: CD8 leader (N); Flag tag (N); expressed in transfected cells; host or cells: mouse pro-B Ba/F3 cells, stably transfected with pME18Sneo-hCXCR3 (N-delta 4); membrane preparation
# T1 sequence (P49682 5-368 limits assumed): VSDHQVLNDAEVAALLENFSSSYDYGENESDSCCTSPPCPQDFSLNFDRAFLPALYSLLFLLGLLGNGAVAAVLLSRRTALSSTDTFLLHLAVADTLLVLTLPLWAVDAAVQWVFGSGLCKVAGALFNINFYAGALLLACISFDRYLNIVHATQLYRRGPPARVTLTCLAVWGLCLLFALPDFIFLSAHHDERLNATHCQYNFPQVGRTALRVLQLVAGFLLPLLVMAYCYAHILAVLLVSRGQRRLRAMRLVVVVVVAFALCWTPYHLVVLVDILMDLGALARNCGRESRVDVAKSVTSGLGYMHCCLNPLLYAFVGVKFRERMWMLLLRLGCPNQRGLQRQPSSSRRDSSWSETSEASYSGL
# Assay: Human CXCR3 (N-delta 4) Scintillation Proximity Assay (SPA), [125I] IP-10 binding
# Details: IC50 rating; Ba/F3-hCXCR3 (N-delta 4) membranes, 25 pM [125I] IP-10; read-out: IC50
# From the text: The inventive compounds can readily be evaluated to determine activity at The CXCR3 receptors by known methods, such as, for example, Development of Human CXCR3 (N-delta 4) Binding Assay.
# Cloning and Expression of Human CXCR3 (N-delta 4):
# The DNA encoding human CXCR3 was cloned by PCR using human genomic DNA (Promega, Madison, Wis.) as a template. The PCR primers were designed based on the published sequence of human orphan receptor GPR9 (1) with incorporated restriction sites, a Kozak consensus sequence, CD8 leader and Flag tag. The PCR product was subcloned into the mammalian expression vector pME18Sneo, a derivative of the SR-alpha expression vector (designated as pME18Sneo-hCXCR3 (N-delta 4).
# IL-3-dependent mouse pro-B cells Ba/F3 were transfected by electroporation in 0.4 ml Dulbecco's PBS containing 4×10^6 cells with 20 μg of pME18Sneo-hCXCR3 (N-delta 4) plasmid DNA. Cells were pulsed at 400 Volts, 100 OHMs, 960 μFd. The transfected cells were under selection with 1 mg/ml G418 (Life Technologies, Gaithersburg, Md.). G418-resistant Ba/F3 clones were screened for CXCR3 expression by specific binding of [^125I] IP-10 (NEN Life Science Products, Boston, Mass.).
# Preparation of Ba/F3-hCXCR3 (N-delta 4) Membranes:
# Ba/F3 cells expressing human CXCR3 (N-delta 4) were pelleted and resuspended in the lysis buffer containing 10 mM HEPES, pH 7.5 and Complete® protease inhibitors (1 tablet per 100 ml) (Boehringer Mannheim, Indianapolis, Ind.) at a cell density of 20×10^6 cells per ml. After 5 minutes incubation on ice, cells were transferred to 4639 cell disruption bomb (Parr Instrument, Moline, Ill.) and applied with 1,500 psi of nitrogen for 30 minutes on ice. Large cellular debris was removed by centrifugation at 1,000×g. Cell membrane in the supernatant was sedimented at 100,000×g. The membrane was resuspended in the lysis buffer supplemented with 10% sucrose and stored at −80° C. Total protein concentration of the membrane was determined by BCA method from Pierce (Rockford, Ill.).
# Human CXCR3 (N-delta 4) Scintillation Proximity Assay (SPA):
# For each assay point, 2 μg of membrane was preincubated for 1 hr with 300 μg wheat germ agglutinin (WGA) coated SPA beads (Amersham, Arlington Heights, Ill.) in the binding buffer (50 mM HEPES, 1 mM CaCl2, 5 mM MgCl2, 125 mM NaCl, 0.002% NaN3, 1.0% BSA) at room temperature. The beads were spun down, washed once, resuspended in the binding buffer and transferred to a 96-well Isoplate (Wallac, Gaithersburg, Md.). 25 pM of [^125I] IP-10 with tested compounds in a series of titration were added to start the reaction. After 3 hr reaction at room temperature, the amount of [^125I] IP-10 bound to the SPA beads was determined with a Wallac 1450 Microbeta counter.
# The Ki values for the various example compounds of the present invention are given in the afore-mentioned Table 1. From these values, it would be apparent to the skilled artisan that the compounds of the invention have excellent utility CXCR3 antagonists.
row,IC50 [nM],Structure (SMILES)
1,< 25,CCNc1nnc(-c2cnc(N3C[C@H](CC)N(C4CCN(C(=O)c5ccc(Cl)nc5N)CC4)C[C@H]3C)c(C(F)(F)F)n2)o1 [Compound 98]
2,< 25,CCNc1nnc(-c2cnc(N3C[C@H](CC)N(C4CCN(C(=O)c5ccc(Cl)nc5N)CC4)C[C@H]3C)c(Cl)n2)o1 [Compound 100]
3,< 25,CC[C@H]1CN(c2ncc(-c3nnc(N)o3)nc2C)[C@H](C)CN1C1CCN(C(=O)c2ccc(Cl)cc2)CC1 [Compound 102]
4,< 25,CC[C@H]1CN(c2ncc(-c3nnc[nH]3)nc2C)CCN1C1CCN(Cc2ccc(F)c(F)c2)CC1 [Compound 109]
5,< 25,CC[C@H]1CN(c2ncc(-c3nc[nH]n3)nc2C)CCN1C1CCN(C(=O)c2ccc(C)c(F)c2)CC1 [Compound 110]
6,< 25,CC[C@H]1CN(c2ncc(-c3ncc[nH]3)nc2C)CCN1C1CCN(C(=O)c2ccc(Cl)cc2)CC1 [Compound 111]
7,< 25,CC[C@H]1CN(c2ncc(-c3nc[nH]n3)nc2C)[C@H](C)CN1C1CCN(Cc2ccc(Cl)cc2)CC1 [Compound 112]
8,25 to 100,CC[C@H]1CN(c2ncc(-c3nnc[nH]3)nc2C)[C@H](C)CN1C1CCN(C(=O)c2ccc(Cl)cc2)CC1 [Compound 118]
9,< 25,CC[C@H]1CN(c2ncc(-c3ncc[nH]3)nc2C)CCN1C1CCN(C(=O)c2ccc(Cl)nc2N)CC1 [Compound 119]
10,25 to 100,CC[C@H]1CN(c2ncc(-c3nc[nH]n3)nc2C)[C@H](C)CN1C1CCN(C(=O)c2ccc(F)c(F)c2)CC1 [Compound 122]
11,< 25,CC[C@H]1CN(c2ncc(-c3nnc(N)o3)nc2C)[C@H](C)CN1C1CCN(Cc2ccc(Cl)cc2)CC1 [Compound 123]
12,< 25,CC[C@H]1CN(c2ncc(-c3nc[nH]n3)nc2C)CCN1C1CCN(C(=O)c2ccc(Cl)c(F)c2)CC1 [Compound 125]
13,< 25,CCNc1nnc(-c2cnc(N3CCN(C4CCN(C(=O)c5ccc(C)cc5)CC4)[C@@H](CC)C3)c(C)n2)o1 [Compound 126]
14,< 25,CC[C@H]1CN(c2ncc(-c3ncc[nH]3)nc2C)[C@H](C)CN1C1CCN(C(=O)c2ccc(Cl)nc2N)CC1 [Compound 130]
15,< 25,CC[C@H]1CN(c2ncc(-c3nc[nH]n3)nc2C)[C@H](C)CN1C1CCN(C(=O)c2ccc(Cl)nc2N)CC1 [Compound 131]
16,25 to 100,CC[C@H]1CN(c2ncc(-c3nnc(C)o3)nc2F)CCN1C1CCN(C(=O)c2ccc(Cl)nc2N)CC1 [Compound 137]
17,< 25,CCNc1nnc(-c2cnc(N3CCN(C4CCN(C(=O)c5ccc(Cl)cc5)CC4)[C@@H](CC)C3)c(C)n2)o1 [Compound 142]
18,< 25,CCNc1nnc(-c2cnc(N3CCN(C4CCN(C(=O)c5ccc(F)c(F)c5)CC4)[C@@H](CC)C3)c(C)n2)o1 [Compound 144]
19,25 to 100,CCNc1nnc(-c2cnc(N3C[C@H](CC)N(C4CCN(C(=O)c5ccc(O)cc5)CC4)C[C@H]3C)c(C)n2)o1 [Compound 145]

# The remaining lines, values behind:
row,Structure (SMILES),IC50 [nM]
1,CCNc1nnc(-c2cnc(N3C[C@H](CC)N(C4CCN(C(=O)c5ccc(Cl)cc5)CC4)C[C@H]3C)c(Cl)n2)o1 [Compound 101],< 25
2,CCNc1nnc(-c2cnc(N3CCN(C4CCN(C(=O)c5ccc(Cl)nc5N)CC4)[C@@H](CC)C3)c(C(F)(F)F)n2)o1 [Compound 103],< 25
3,CC[C@H]1CN(c2ncc(-c3ncc[nH]3)nc2C)CCN1C1CCN(Cc2ccc(F)cc2)CC1 [Compound 104],< 25
4,CC[C@H]1CN(c2ncc(-c3nnc[nH]3)nc2C)CCN1C1CCN(Cc2ccc(F)cc2)CC1 [Compound 105],< 25
5,CC[C@H]1CN(c2ncc(-c3nc[nH]n3)nc2C)[C@H](C)CN1C1CCN(Cc2ccc(F)cc2)CC1 [Compound 106],< 25
6,CC[C@H]1CN(c2ncc(-c3ncc[nH]3)nc2C)CCN1C1CCN(Cc2ccc(Cl)cc2)CC1 [Compound 107],< 25
7,CC[C@H]1CN(c2ncc(-c3ncc[nH]3)nc2C)CCN1C1CCN(Cc2ccc(F)c(F)c2)CC1 [Compound 108],< 25
8,CC[C@H]1CN(c2ncc(-c3nc[nH]n3)nc2C)CCN1C1CCN(C(=O)c2ccc(F)c(F)c2)CC1 [Compound 113],< 25
9,CC[C@H]1CN(c2ncc(C3=NNCN3)nc2C)[C@H](C)CN1C1CCN(Cc2ccc(F)c(F)c2)CC1 [Compound 114],< 25
10,CCNc1nnc(-c2cnc(N3CCN(C4CCN(Cc5ccc(C)cc5)CC4)[C@@H](CC)C3)c(C)n2)o1 [Compound 115],< 25
11,CC[C@H]1CN(c2ncc(C3=NCCN3)nc2C)[C@H](C)CN1C1CCN(C(=O)c2ccc(Cl)cc2)CC1 [Compound 116],< 25
12,CCNc1nnc(-c2cnc(N3CCN(C4CCN(Cc5ccc(F)cc5)CC4)[C@@H](CC)C3)c(C)n2)o1 [Compound 117],< 25
13,CC[C@H]1CN(c2ncc(-c3nnc(N)[nH]3)nc2C)CCN1C1CCN(C(=O)c2ccc(Cl)cc2)CC1 [Compound 120],< 25
14,CC[C@H]1CN(c2ncc(-c3ncc[nH]3)nc2C)CCN1C1CCN(C(=O)c2ccc(Cl)c(F)c2)CC1 [Compound 124],< 25
15,CCNc1nnc(-c2cnc(N3CCN(C4CCN(Cc5ccc(C)c(F)c5)CC4)[C@@H](CC)C3)c(C)n2)o1 [Compound 127],< 25
16,CCNc1nnc(-c2cnc(N3C[C@H](CC)N(C4CCN(Cc5ccc(F)cc5)CC4)C[C@H]3C)c(C)n2)o1 [Compound 128],< 25
17,CCc1nnc(-c2cnc(N3CCN(C4CCN(C(=O)c5ccc(Cl)cc5)CC4)[C@@H](CC)C3)c(C)n2)[nH]1 [Compound 129],< 25
18,CCNc1nnc(-c2cnc(N3CCN(C4CCN(Cc5ccc(Cl)cc5)CC4)[C@@H](CC)C3)c(C)n2)o1 [Compound 132],< 25
19,CC[C@H]1CN(c2ncc(-c3nc[nH]n3)nc2C)[C@H](C)CN1C1CCN(C(CO)c2ccc(Cl)cc2)CC1 (stereo partly drawn) [Compound 133],< 25
20,CC[C@H]1CN(c2ncc(-c3nc[nH]n3)nc2C)[C@H](C)CN1C1CCN(C(=O)c2ccc(Cl)c(F)c2)CC1 [Compound 134],< 25
21,CC[C@H]1CN(c2ncc(-c3ncc[nH]3)nc2C)CCN1C1CCN(Cc2ccc(OC(F)(F)F)cc2)CC1 [Compound 135],< 25
22,CCNc1nnc(-c2cnc(N3C[C@H](CC)N(C4CCN(Cc5ccc(O)cc5)CC4)C[C@H]3C)c(C)n2)o1 [Compound 136],< 25
23,CC[C@H]1CN(c2ncc(-c3nc[nH]n3)nc2C)CCN1C1CCN(C(=O)c2cc(F)c(F)cc2Cl)CC1 [Compound 138],25 to 100
24,CCNc1nnc(-c2cnc(N3CCN(C4CCN(C(=O)c5ccc(CC)cc5)CC4)[C@@H](CC)C3)c(C)n2)o1 [Compound 139],25 to 100
25,CC[C@H]1CN(c2ncc(-c3nnc(C4CC4)[nH]3)nc2C)CCN1C1CCN(C(=O)c2ccc(Cl)cc2)CC1 [Compound 140],< 25
26,CC[C@H]1CN(c2ncc(-c3nnc(C(C)C)[nH]3)nc2C)CCN1C1CCN(C(=O)c2ccc(Cl)cc2)CC1 [Compound 141],25 to 100
27,CC[C@H]1CN(c2ncc(-c3nnc(NC)o3)nc2C)[C@H](C)CN1C1CCN(C(=O)c2ccc(Cl)cc2)CC1 [Compound 143],< 25
28,CC[C@H]1CN(c2ncc(-c3nc4ccccc4[nH]3)nc2C)CCN1C1CCN(C(=O)c2ccc(Cl)cc2)CC1 [Compound 146],< 25
29,CC[C@H]1CN(c2ncc(-c3nc[nH]n3)nc2C)CCN1C1CCN(C(=O)c2ccc(C(F)(F)F)nc2N)CC1 [Compound 147],25 to 100
